# Test results published in publication PMC8538351 (Pharmaceuticals, 2021).
# Where two headings read alike, the source gives them in different places.
# Key:
# SARS-CoV-2 [1] = test: Cytopathic effect protection assay (crystal violet) in Vero E6 cells; type: cell-based; conditions: Vero E6, 72 h
# Procedure: In order to explore for the presence of anti-SARS-CoV-2 metabolites in M. polymorpha, we prepared crude extracts of two different M. polymorpha subspecies (subsp. ruderalis from Japan and subsp. polymorpha, from Spain). The anti-SARS-CoV-2 activity of the resulting crude extracts was tested in Vero E6 cell monolayers infected with the SARS-CoV-2 NL2020 strain (Figure 1A). Infection was carried out at a multiplicity of infection (MOI) of 0.001 for 72 h. In the absence of antiviral activity, SARS-CoV-2 infection triggers cell death of Vero E6 cells and results in loss of cell biomass in the well, which is readily visualized as a strong reduction in crystal violet staining (DMSO, Figure 1A). […] Thus, protective activity may be used as a rapid qualitative surrogate assay to facilitate identification of substances with antiviral potential.
# Vero E6 or Huh7-ACE2 cell monolayers were inoculated (MOI = 0.001) in the presence of a wide range of two-fold dilutions of the crude, or partially purified extracts, or pure compounds and incubated for 72 h. Cytopathic effect and lack thereof was visualized by crystal violet staining, as previously described. Untreated and solvent-treated cells were included in each plate as controls. […] A minimum virus dose (10 infectious units/well; MOI 0.001 in 1e4 cells/well) capable of producing overt cytopathic effect was used. […]
# SARS-CoV-2 [2] = test: Cytopathic effect protection assay (crystal violet) in Huh7-ACE2 cells; type: cell-based; conditions: Huh7-ACE2, 72 h
# Procedure: To confirm the antiviral potential of PheoA, a commercially available PheoA stock solution was serially diluted and mixed with a virus stock to inoculate Vero E6 and Huh7-ACE2 cells (human hepatoma cells expressing ACE2). Cells were fixed 72 h post-inoculation and stained with crystal violet to visualize the integrity of the cell monolayer.
# Vero E6 or Huh7-ACE2 cell monolayers were inoculated (MOI = 0.001) in the presence of a wide range of two-fold dilutions of the crude, or partially purified extracts, or pure compounds and incubated for 72 h. Cytopathic effect and lack thereof was visualized by crystal violet staining, as previously described. Untreated and solvent-treated cells were included in each plate as controls. […] A minimum virus dose (10 infectious units/well; MOI 0.001 in 1e4 cells/well) capable of producing overt cytopathic effect was used. Lower virus doses produce visible plaques and complete absence of CPE coincides with the expected endpoint dilution, around 8-fold lower dilutions.
# SARS-CoV-2 [3] = test: Antiviral activity by immunofluorescence microscopy in Vero E6 cells; type: cell-based; conditions: for EC50: Severe acute respiratory syndrome coronavirus 2, Vero C1008, 48 h
# Procedure: (§1) Vero E6, A549-ACE2 or Calu3 were seeded onto 96-well plates as described above and infected in the presence of the indicated compound dose (MOI = 0.01). Twenty-four hours post infection (48 h for Calu3 cells), cells were fixed for 20 min at room temperature with a 4% formaldehyde solution in PBS, washed twice with PBS and incubated with incubation buffer (3% BSA; 0.3% Triton X100 in PBS) for 1 h. A monoclonal antibody against the N protein was diluted in the incubation buffer (1:2000, v/v; Genetex HL344) and incubated with the cells for 1 h; after this time, cells were washed with PBS and subsequently incubated with a 1:500 (v/v) dilution of a goat anti-rabbit conjugated to Alexa 488 (Invitrogen-Carlsbad, Carlsbad, CA, USA). Nuclei were stained with DAPI (Life Technologies, Budapest, Hungary) as recommended by the manufacturer during the secondary antibody incubation. Cells were washed with PBS and imaged using an automated multimode reader Spark Cyto (TECAN-Grödig, Austria).
# (§2) All the infection experiments were performed by mixing the virus and compound dilutions 1:1 (v/v) before addition to the target cells. In the time-of-addition experiments, Vero E6 cultures were inoculated (MOI from 0.5–1) for 1 h in the presence or absence of the compounds at 37 °C. Subsequently, virus-compound mixtures were left at all times, or removed and replaced with fresh 2% FBS complete media containing or not the tested compounds (see experimental scheme in Figure 7 for details). Cells were fixed 6 h post-inoculation.
# (§3) Descriptive statistics were calculated using Microsoft Excel. One-way ANOVA and post hoc tests were calculated using IBM SPSS Software Package (version 26). EC50 and EC90 values were obtained employing the PROBIT regression method using IBM SPSS vs26, except for values in Table 1 that were calculated by graphic interpolation of individual curves.
# SARS-CoV-2 [4] = test: Antiviral activity by immunofluorescence microscopy in A549-ACE2 cells; type: cell-based; conditions: A549-ACE2, MOI 0.01, 48 h; for EC50: Severe acute respiratory syndrome coronavirus 2, A549-ACE2, 48 h
# Procedure: as §1, §2, §3
# SARS-CoV-2 [5] = test: Antiviral activity by immunofluorescence microscopy in Calu3 cells; type: cell-based; conditions: Calu3, MOI 0.005, 48 h; for EC50: Severe acute respiratory syndrome coronavirus 2, Calu-3, 48 h
# Procedure: as §1, §2, §3
# SARS-CoV-2 [6] = test: Antiviral activity by immunofluorescence microscopy, summary for Vero E6, A549-ACE2 and Calu3; type: cell-based; conditions: Severe acute respiratory syndrome coronavirus 2, all tested cell lines
# Procedure: (§4) PheoA antiviral activity was further confirmed by immunofluorescence microscopy–to estimate virus propagation–and an MTT assay–to evaluate compound cytotoxicity. […] This dataset was used to determine effective concentrations (EC50 and EC90) and cytotoxicity indexes. The estimated EC50 and EC90 values were around 50 nM and 100 nM, respectively, with a wide therapeutic window in all tested cell lines (Table 1)
# as §1
# [7] = Cytotoxicity by MTT assay in Vero E6 cells; type: cell-based, Green Monkey; conditions: green monkey, Vero E6 cells; Vero-E6, MTT, 48 h
# Procedure: (§5) Cell monolayers were seeded in 96-well plates. The day after cells were treated with a wide range of compound concentrations and forty-eight hours later they were subjected to an MTT assays using standard procedures. The CC50 values were graphically interpolated from dose–response curves obtained with three biological replicates.
# [8] = Cytotoxicity by MTT assay in A549-ACE2 cells; type: cell-based; conditions: human
# Procedure: as §5
# [9] = Cytotoxicity by MTT assay in Calu3 cells; type: cell-based; conditions: human
# Procedure: as §5
# [10] = test system: Vero E6, A549-ACE2 and Calu3 cells; test: Cytotoxicity by MTT assay, summary for Vero E6, A549-ACE2 and Calu3; type: cell-based; conditions: all three models, assayed doses
# Procedure: as §4, §5
# SARS-CoV-2 [11] = test: Extracellular viral RNA load by RT-qPCR in A549-ACE2 cells; type: cell-based; conditions: A549-ACE2, 48 h
# HCV = test: microbe, parasite or virus in culture; type: cell-based; conditions: Hepatitis C virus, Huh-7, 48 h
# hCoV-229E = test: microbe, parasite or virus in culture; type: cell-based; conditions: Human coronavirus 229E, Huh-7, 48 h
# West Nile Virus = test: microbe, parasite or virus in culture; type: cell-based; conditions: Huh-7, 48 h
# [12] = test system: vesicular stomatitis virus (VSV-GFP); test: microbe, parasite or virus in culture; type: cell-based; conditions: Huh-7
# [13] = test system: vesicular stomatitis virus (VSV-GFP); test: microbe, parasite or virus in culture; type: cell-based; conditions: A549-ACE2
# SARS-CoV-2 [14] = test: Combination treatment of PheoA with RMDV in Vero E6 cells, immunofluorescence microscopy; type: cell-based; conditions: Severe acute respiratory syndrome coronavirus 2, Vero C1008, 24 h, read-out: EC50 of individual treatment
# Procedure: Thus, combination treatments were performed with increasing doses of PheoA and RMDV. Drugs were mixed in different proportions, combined with infectious SARS-CoV-2 (MOI = 0.01) and the mixtures were used to inoculate Vero E6 cells. Twenty-four hours later, cells were fixed and processed to determine the infection efficiency as using immunofluorescence microscopy. […] Increasing concentrations of PheoA improved RMDV efficacy and viceversa.
# Synergy analysis was carried out in the web-based platform Synergy Finder (https://synergyfinder.fimm.fi/, accessed on 25 September 2021).
# SARS-CoV-2 [15] = test: Time-of-addition experiment in Vero E6 cells (single-cycle infection); type: cell-based; conditions: for efficacy when added during the virus entry phase (in words): versus maintained at all times
# Procedure: Next, antiviral efficacy of PheoA was compared when PheoA was (i) present at all times, (ii) added only during virus inoculation, or (iii) added only after virions had effectively penetrated the cells in single-cycle infection experiments ([…]).
# as §2
# [16] = test system: retroviral vectors pseudotyped with SARS-CoV-2 Spike protein (SARS2pp); type: cell-based
# [17] = test system: retroviral vectors pseudotyped with VSV glycoprotein (VSVpp); type: cell-based
# SARS-CoV-2 virions = test: Virucidal assay: pre-incubation of virions, residual infectivity titer by TCID50; type: cell-based; conditions: for virus infectivity after pre-incubation (in words): 340 nM
# Huh7 cells = conditions: Huh7, 48 h
# SARS-CoV-2 [18] = test: Viral RNA load by RT-qPCR in Vero E6 cells; type: cell-based; conditions: 25 µM, Vero E6, MOI 0.001, 72 h post infection
# SARS-CoV-2 [19] = conditions: monolayers protected down to this concentration; read-out: reported EC50; cited from earlier work
# Vero E6 cells = test: Cytotoxicity by MTT assay in Vero E6 cells; type: cell-based, Green Monkey; conditions: Vero E6, MTT, parallel cultures
# Procedure: as §5
# [20] = mean ± SD n = 3, graphic interpolation
# [21] = Vero E6, MOI 0.005, 48 h, PROBIT regression
structure (smiles),measurement,setting,value
"C=Cc1c(C)c2cc3nc(c4c5[nH]c(cc6nc(cc1[nH]2)C(C)=C6CC)c(C)c5C(=O)[C@@H]4C(=O)OC)[C@@H](CCC(=O)O)[C@@H]3C [PheoA, Pheophorbide a]",concentration with consistent protective capacity,SARS-CoV-2 [1],above 65 nM
same,concentration with consistent protective capacity,SARS-CoV-2 [2],above 65 nM
same,EC50,"SARS-CoV-2 [3]; Vero-E6, MOI 0.005, 48 h, mean ± SD n = 3, graphic interpolation",54 ± 13 nM
same,EC90,"SARS-CoV-2 [3]; Severe acute respiratory syndrome coronavirus 2, Vero C1008, Vero-E6, MOI 0.005, 48 h, mean ± SD n = 3",106 ± 16 nM
same,EC50,SARS-CoV-2 [4]; [20],62 ± 25 nM
same,EC90,"SARS-CoV-2 [4]; Severe acute respiratory syndrome coronavirus 2, mean ± SD n = 3",201 ± 84 nM
same,EC50,SARS-CoV-2 [5]; [20],35 ± 20 nM
same,EC90,"SARS-CoV-2 [5]; Severe acute respiratory syndrome coronavirus 2, Calu-3, mean ± SD n = 3",98 ± 8 nM
same,EC50,SARS-CoV-2 [6]; read-out: estimated EC50,~50 nM
same,EC90,SARS-CoV-2 [6]; read-out: estimated EC90,~100 nM
same,CC50 at 48 h,[7],> 8420 nM
same,CC50 at 48 h,[8],2600 ± 500 nM
same,CC50 at 48 h,[9],> 8420 nM
same,cytotoxicity (in words),[10],no cytotoxicity was observed
same,viral RNA accumulation (in words),SARS-CoV-2 [11]; increasing concentrations,reduced viral RNA accumulation in a dose-dependent manner
same,EC50,HCV,300 nM
same,EC50,hCoV-229E,128 nM
same,EC50,West Nile Virus,64 nM
same,EC50,[12],506 nM
same,EC50,[13],578 nM
same,EC50,SARS-CoV-2 [14],40 nM
same,antiviral activity when maintained at all times (in words),"SARS-CoV-2 [15]; Vero E6, MOI 5, 6 h",expected antiviral activity
same,efficacy when added during the virus entry phase (in words),"SARS-CoV-2 [15]; Vero E6, MOI 5, 6 h",nearly identical
same,efficacy when added after virion internalization,"SARS-CoV-2 [15]; Vero E6, MOI 5, fixed 6 h post-inoculation",ca. 6 % of the maximum efficacy
same,maximum reduction of infection efficiency,"[16]; maximum dose 675 nM, 48 h",≤ 40%
same,maximum reduction of infection efficiency,[17],≤ 40%
same,virus infectivity after pre-incubation (in words),SARS-CoV-2 virions; 30 min,reduced partially
same,virus infectivity after pre-incubation (in words),SARS-CoV-2 virions; 60 min,below detection limits
same,virus infectivity after pre-incubation (in words),"SARS-CoV-2 virions; up to 15 min, room temperature",did not have any significant impact on virus infectivity
same,dose giving statistically significant reduction in remaining virus infectivity,"SARS-CoV-2 virions; 30 min pre-incubation, 10^5 TCID50/mL, room temperature",above 67 nM
same,cytotoxicity (in words),Huh7 cells,no cytotoxicity was observed
"CCC(CC)COC(=O)[C@H](C)N[P@](=O)(OC[C@H]1O[C@@](C#N)(c2ccc3c(N)ncnn23)[C@H](O)[C@@H]1O)Oc1ccccc1 [RMDV, Remdesivir]",viral RNA load,SARS-CoV-2 [18],undetectable
same,reduction of extracellular viral RNA,SARS-CoV-2 [11]; 5 µM,two orders of magnitude
same,EC50,SARS-CoV-2 [14],2000 nM
same,antiviral activity when maintained at all times (in words),"SARS-CoV-2 [15]; Vero E6, MOI 5, 6 h",highly effective at reducing infection efficiency
same,EC50,SARS-CoV-2 [19],1500 nM
"C=Cc1c(C)c2cc3nc(c4c5[nH]c(cc6nc(cc1[nH]2)C(C)=C6CC)c(C)c5C(=O)[C@@H]4C(=O)OC)[C@@H](CCC(=O)O)[C@@H]3C [Semi-synthetic PheoA, Pheophorbide a]",EC50,SARS-CoV-2 [3]; [21],51 nM
same,EC50,SARS-CoV-2 [4]; PROBIT regression,74 nM
same,EC50,SARS-CoV-2 [5]; PROBIT regression,38 nM
"Cc1ccc(NC(=O)c2ccc(CN3CCN(C)CC3)cc2)cc1Nc1nccc(-c2cccnc2)n1 [imatinib, Imatinib]",efficacy when added after virion internalization (in words),"SARS-CoV-2 [15]; 15 µM, Vero E6, MOI 5, 6 h",greatly lost efficacy
same,antiviral activity when maintained at all times (in words),"SARS-CoV-2 [15]; Vero E6, MOI 5, 6 h",expected antiviral activity
same,efficacy when added during the virus entry phase (in words),"SARS-CoV-2 [15]; Vero E6, MOI 5, 6 h",comparable efficacy
same,entry inhibition (in words),[16]; 15 µM,selectively inhibited SARS2pp
same,entry inhibition (in words),[17]; 15 µM,not VSVpp entry
"C=Cc1c(C)c2cc3nc(c4c5[nH]c(cc6nc(cc1[nH]2)C(C)=C6CC)c(C)c5C(=O)C4)[C@@H](CCC(=O)O)[C@@H]3C [pPheoA, pyropheophorbide a]",EC50,SARS-CoV-2 [3]; [21],185 nM
same,cytotoxicity (in words),Vero E6 cells,absence of measurable cytotoxicity
